Consider 1 molecule from patent US20060183773A1, “Uses of methylphenidate derivatives” (priority 2005, published 2006).

Assay type in all cases: cell-based, human
Assay [1] has as its system VAV. As to the kind of experiment: Custom AntibodyArray, TRiPS cells: VAV. Conditions: 15 μg/ml, 30 minutes. Here is the method: (§1) Day 18 TRiPS cells, 1×10^6, were incubated for 30 minutes at 37° C., either with nothing added (“Nil”), with 1 μl CD3/CD28 Dynabeads (Dynal, Oslo, Norway) (“CD3/CD28 beads”) per 100,000 cells, or with CD3/CD28 beads and 15 μg/ml of the compound of formula II (Cpd II). After the incubation, the cells were lysed in Cell-Lytic Mammalian Cell Extraction Reagent (Sigma). After centrifugation to pellet cellular debris, the supernatants (cell extracts) were obtained.
(§2) The cell extracts (supernatants) were then analyzed using a Custom AntibodyArray™ manufactured by Hypromatrix Inc., Worcester, Mass., following the manufacturer's instructions. The Custom AntibodyArray™ is a nylon membrane blotted with antibodies to the proteins listed below. Briefly, the cell extracts were incubated with duplicate Custom AntibodyArray™'s for 2 hours at room temperature with slow shaking, followed by three washes with Tris buffer (150 mM NaCl, 25 mM Tris, 0.05% Tween-20, pH 7.5). HRP-labeled antibodies specific for phosphorylated-tyrosine, phosphorylated-serine and phosphorylated-threonine in Tris buffer were added, and the arrays incubated for 2 hours. After three more washes with Tris buffer, a peroxidase-reactive luminescent substrate was added. The arrays were visualized by exposure to X-ray film. Densitometry of the X-ray films was measured by scanning and computer analysis.

The test system of assay [2] is IL-8. As to the kind of experiment: IL-8 release from LPS-stimulated THP-1 monocytes, ELISA. Conditions: for inhibition at 15 µg/mL: Homo sapiens, read-out: % Inhibition (IL-8). The procedure: THP-1 is a monocyte cell line obtained from American Type Culture Collection (ATCC) (catalog no. TIB-202). […] After 1 hour, lipopolysaccharide (LPS) (obtained from Sigma) was added to the cultures to give a final concentration of 200 ng/ml, and the cells were then incubated for an additional 4 hours or for an additional 24 hours. After the incubation, the cells were centrifuged, and the supernatants were collected. The concentrations of IL-8 and TNFα in the supernatants were determined by ELISA.
The concentrations of IL-8 in the supernatants were determined by ELISA performed as described in Example 4.

Assay [3] has as its system TNFα. As to the kind of experiment: TNFα release by PBL, ELISA. Conditions: donor GR191; 5 μg/ml PHA, 72 h; Cpd II 15 and 50 μg/ml, Dex 10 μM; FIG. 7. Here is the method:
After this incubation, PHA was added to give a final concentration of 5 μg/ml, and the cells were incubated for an additional 72 hours at 37° C., 5% CO2. All cultures were performed in triplicate. Cells were then removed by centrifugation at 1000 rpm for 10 minutes.
The TNFα ELISA was performed as described in Example 2 using matched pair antibodies from Pierce Endogen (2 μg/ml for the coating antibody and 250 ng/ml for the second antibody).

The subject of assay [4] is RAP-1. As to the kind of experiment: RAP-1 activation pulldown assay in TRiPS cells. Conditions: CD3/CD28 beads + 15 μg/ml. The procedure:
(§3) Day 10 TRiPS cells, 1×10^6, were incubated with 15 μg/ml of the compound of formula II (Cpd II) for 1 hour at 37° C. Then, the cells were incubated with CD3/CD28 beads (1 μl per 100,000 cells) (obtained from Dynal) for 10 minutes at 37° C. The cells were then lysed with a mild buffer (supplied with Pierce EZ-Detect activation kit described below) to produce cell extracts. Protein concentrations of the resulting extracts were determined by bicinchoninic acid (BCA) assay (Pierce) and placed on ice for immediate use.
(§4) Pulldown assays were performed using Pierce EZ-Detect activation kits according to the manufacturer's instructions utilizing GST-RAF-1-RBD and GST-RalGDS-RBD for RAS and RAP-1 respectively. Briefly, 400 μg total protein from each extract was combined with recombinant protein and glutathione resin and incubated at 4° C. for one hour with gentle shaking. The resin was then washed to remove unbound protein and the activated RAS and RAP-1 proteins were removed by boiling in the presence of SDS-PAGE loading dye containing reducing agent. RAS and RAP-1 western blots were performed to visualize the proteins using antibodies supplied with the kit. Densitometry of the X-ray films was done by scanning and computer analysis.

Assay [5] relates to MEKK1. As to the kind of experiment: Custom AntibodyArray, TRiPS cells: MEKK1. Conditions: 15 μg/ml, 30 minutes. The procedure:
as §1, §2

Assay [6] concerns MEK1. As to the kind of experiment: Custom AntibodyArray, TRiPS cells: MEK1. Conditions: 15 μg/ml, 30 minutes. Here is the method:
as §1, §2

Assay [7] deals with RAS. As to the kind of experiment: RAS activation pulldown assay in TRiPS cells. Conditions: CD3/CD28 beads + 15 μg/ml. Here is the method:
as §3, §4

Assay [8] relates to IkB-ε. As to the kind of experiment: Custom AntibodyArray, TRiPS cells: IkB-ε. Conditions: 15 μg/ml, 30 minutes. Here is the method: as §1, §2
Assay [9] has as its system JNK3. As to the kind of experiment: Custom AntibodyArray, TRiPS cells: JNK3. Conditions: 15 μg/ml, 30 minutes. Here is the method:
as §1, §2

Assay [10] deals with IkB-r. As to the kind of experiment: Custom AntibodyArray, TRiPS cells: IkB-r. Conditions: 15 μg/ml, 30 minutes. The procedure: as §1, §2
The subject of assay [11] is peripheral blood lymphocytes (PBL). As to the kind of experiment: Cell clumping of PHA-stimulated PBL (microscopy). Conditions: PBL of donor GR283; 5 μg/ml PHA; compound 5, 15, 50 μg/ml; 24 h pre-incubation + 72 h. Here is the method:
Whole blood was drawn from GR283, a human volunteer with known allergies, into a glass vacutainer tube containing no anticoagulant. This blood was allowed to clot, and the serum was removed by centrifugation and then heat inactivated by placing it in a water bath at 56° C. for 30 minutes. Whole blood from GR283 was also drawn into a glass vacutainer tube containing heparin and used for peripheral blood lymphocytes (PBL) isolation as follows. Whole blood was layered over room temperature Histopaque 1077 solution and centrifuged at 2000 rpm for 15 minutes at room temperature. Cells at the plasma-Histopaque interface were then removed and washed with culture medium (IMDM medium with 10% heat-inactivated GR283 serum plus 1% penicillin/streptomycin) at 37° C.
The compound of formula II (see above) and methylphenidate (both obtained from Dr. Jeffrey D. Winkler, University of Pennsylvania, Philadelphia, Pa.) in culture medium were added to wells of a 96-well plate to give final concentrations of 5 μg/ml, 15 μg/ml and 50 μg/ml of the compound of formula II and of methylphenidate. […] Then, GR283's PBL in culture medium were added to the wells to give a final concentration of 150,000 cells per well, and the plates were incubated at 37° C., 5% CO2 for 24 hours. […]

By inhibition is commonly meant the percentage by which the read-out fell short of the control.

Read-outs that look alike come from different tables or passages of the source.

In the case of `COC(=O)C(c1ccc(-c2ccccc2)cc1)C1CCCCN1` (centres unmarked) [Cpd II], the “Effect of Cpd II on the protein in CD3/CD28 stimulated TRiPS cells” value in assay [1] was “No effect”; in assay [5], “Decreased level back to basal levels (Nil control)”; in assay [6] it was “Decreased level to below basal levels (Nil control)”; in assay [8] it was “Slightly decreased the level”; in assay [9], “Decreased level back to basal levels (Nil control)”; in [10], “Decreased level back to basal levels (Nil control)”. Besides, the inhibition at 15 µg/mL stood at 23% in assay [2] (THP-1, 4 h) and 33% in assay [2] (THP-1, 24 h). The “Mean IL-8 Concentration” value in assay [2] (THP-1, LPS 200 ng/ml, 4 hours, Cpd II 15 μg/ml, Dex 10 μM, LPS alone 2844.60) came out at 2185.00 ± 78.30 pg/mL; in assay [2] (THP-1, LPS 200 ng/ml, 24 hours, Cpd II 15 μg/ml, Dex 10 μM, LPS alone 6653.20) it was 4490.20 ± 264.46 pg/mL. The “release of IL-8 from LPS-stimulated monocytes (in words)” value in assay [2] (THP-1, LPS 200 ng/ml, Cpd II 15 μg/ml, Dex 10 μM) is listed as “significantly inhibited the release of IL-8”. Further, the “release of TNFα from PHA-stimulated PBL” value in assay [3] was “significantly inhibited the release of TNFα”. For the same molecule, the “inhibition of RAP-1 (in words)” value in [4] is recorded as “appeared to inhibit RAP-1”. Besides, the “Integrated Optical Density for RAP-1 assay” value in assay [4] (no treatment 259.27, beads only 213.66) was determined as 87.26. Moreover, the “inhibition of RAS protein (in words)” value in assay [7] was “very strong inhibition of RAS protein”. In assay [7] (no treatment 66.83, beads only 245.91), the “Integrated Optical Density for RAS assay” value is listed as 84.98. For the same molecule, in assay [11], the “cell clumping induced by PHA” value is “reduced the amount of cell clumping induced by 5 μg/ml PHA in a dose-dependent manner”.
